In brackets after ≈: the same amount, converted by molar mass. Several values for one entry are separate records, joined by “and”; a condition that tells them apart may be missing. Equal entries are not always repeated. Blank lines part the entries; values can stand above or below the compound they belong to.
Legend:
Experiment in all cases: ≥ marks a high value that may be exact or a test limit, other limits are often not marked, values filed in µg/mL are converted to µM
Escherichia coli C600 = tested on: Escherichia coli C600
[1] = tested on: Staphylococcus aureus 209P
[2] = tested on: Bacillus subtilis VKM B-501
Escherichia coli 1005 = tested on: Escherichia coli 1005
[3] = tested on: Candida albicans CGMCC 2.2086
[4] = tested on: Candida tropicalis CGMCC 2.1975
[5] = tested on: Candida krusei CGMCC 2.1857
Candida albicans = tested on: Candida albicans
[6] = tested on: Staphylococcus epidermidis ATCC 12228
[7] = tested on: Staphylococcus aureus ATCC 29213
[8] = tested on: Salmonella enterica subsp. enterica serovar Typhimurium ATCC 14028
[9] = tested on: Salmonella enterica subsp. enterica serovar Pullorum ATCC 7913
[10] = tested on: Staphylococcus aureus ATCC 43300
[11] = tested on: Candida parapsilosis CGMCC 2.3989
[12] = tested on: Staphylococcus aureus ATCC 25923
[13] = tested on: Escherichia coli ATCC 25922
[14] = tested on: Batrachochytrium dendrobatidis
[15] = tested on: Pseudomonas aeruginosa ATCC 13388
[16] = tested on: Enterococcus faecium CCT 5079
[17] = tested on: Bacillus cereus ATCC 11778
[18] = tested on: Streptococcus mutans AU159
[19] = tested on: Candida albicans ATCC 90028
[20] = tested on: Escherichia coli CCT 1457
[21] = tested on: Staphylococcus aureus CCT 6538
[22] = tested on: Staphylococcus aureus CCT 2580
[23] = tested on: Bacillus thuringiensis ATCC 10792
[24] = tested on: Salmonella enterica subsp. enterica serovar Choleraesuis ATCC 10708
[25] = tested on: Streptococcus pneumoniae ATCC 11733
[26] = tested on: Escherichia coli ATCC 11775
[27] = tested on: Enterococcus hirae ATCC 10541
[28] = tested on: Micrococcus luteus ATCC 4698
[29] = tested on: Pseudomonas aeruginosa ATCC 15422

SMILES: NC(=O)[C@H](CCCN=C(N)N)NC(=O)[C@H](CCCN=C(N)N)NC(=O)[C@H](Cc1c[nH]c2ccccc12)NC(=O)[C@H](CCCN=C(N)N)NC(=O)[C@H](Cc1c[nH]c2ccccc12)NC(=O)[C@H](Cc1c[nH]c2ccccc12)NC(=O)[C@H](Cc1c[nH]c2ccccc12)NC(=O)[C@H](CCCN=C(N)N)NC(=O)[C@H](Cc1c[nH]c2ccccc12)NC(=O)[C@H](CCCN=C(N)N)NC(=O)[C@@H](N)CCCN=C(N)N [RRWRWWWRWRR]
MIC (Escherichia coli 1005): 4 µM (≈ 7.54 µg/mL)
MIC [3]: 4 µM and 8 µM
MIC [4]: 2 µM (≈ 3.77 µg/mL)
MIC [5]: 2 µM (≈ 3.77 µg/mL)
MIC (Candida albicans): 4 µM (≈ 7.54 µg/mL)
MIC [6]: 4 µM (≈ 7.54 µg/mL)
MIC [7]: 2 µM (≈ 3.77 µg/mL)
MIC [8]: 4 µM (≈ 7.54 µg/mL)
MIC [9]: 2 µM (≈ 3.77 µg/mL)
MIC [10]: 4 µM (≈ 7.54 µg/mL)
MIC [11]: 8 µM (≈ 15.1 µg/mL)
MIC [12]: 4 µM (≈ 7.54 µg/mL)

SMILES: NC(=O)[C@H](CCCN=C(N)N)NC(=O)[C@H](Cc1ccccc1)NC(=O)[C@H](CCCN=C(N)N)NC(=O)[C@H](Cc1ccccc1)NC(=O)[C@H](Cc1ccccc1)NC(=O)[C@H](Cc1ccccc1)NC(=O)[C@H](CCCN=C(N)N)NC(=O)[C@H](Cc1ccccc1)NC(=O)[C@@H](N)CCCN=C(N)N [RFRFFFRFR]
MIC [13]: 4 µM and > 2 µM
MIC (Escherichia coli 1005): 4 µM (≈ 5.51 µg/mL)
MIC [4]: 2 µM (≈ 2.76 µg/mL)
MIC [5]: 4 µM (≈ 5.51 µg/mL)
MIC (Candida albicans): 5.66 µM (≈ 7.79 µg/mL)
MIC [6]: 4 µM (≈ 5.51 µg/mL)
MIC [7]: 4 µM (≈ 5.51 µg/mL)
MIC [8]: 4 µM (≈ 5.51 µg/mL)
MIC [9]: 2 µM (≈ 2.76 µg/mL)
MIC [10]: 4 µM (≈ 5.51 µg/mL)
MIC [11]: 16 µM (≈ 22 µg/mL)
MIC [12]: 4 µM (≈ 5.51 µg/mL)

SMILES: CC[C@H](C)[C@H](N)C(=O)N[C@@H](CC(N)=O)C(=O)N[C@@H](Cc1c[nH]c2ccccc12)C(=O)N[C@@H](CC(C)C)C(=O)N[C@@H](CCCCN)C(=O)N[C@H](C(=O)N[C@@H](CCCCN)C(=O)N[C@@H](CCCCN)C(=O)N[C@@H](CCCCN)C(=O)N[C@H](C(=O)N[C@@H](C)C(=O)NCC(=O)N[C@@H](CCSC)C(=O)N[C@@H](CC(C)C)C(N)=O)C(C)C)[C@@H](C)CC [INWLKIKKKVAGML]
MIC [13]: 18.9 µM (≈ 31 µg/mL)
MIC [15]: ≥ 152 µM
MIC [16]: 4.87 µM (≈ 8 µg/mL)
MIC [17]: ≥ 152 µM
MIC [18]: 2.44 µM (≈ 4 µg/mL)
MIC [19]: ≥ 38.1 µM
MIC [20]: 4.87 µM (≈ 8 µg/mL)
MIC [21]: 18.9 µM (≈ 31 µg/mL)
MIC [6]: 2.44 µM (≈ 4 µg/mL)
MIC [22]: 4.87 µM (≈ 8 µg/mL)
MIC [23]: ≥ 76.1 µM
MIC [24]: ≥ 304 µM
MIC [8]: 18.9 µM (≈ 31 µg/mL)
MIC [25]: 1.22 µM (≈ 2 µg/mL)
MIC [26]: 18.9 µM (≈ 31 µg/mL)
MIC [27]: 18.9 µM (≈ 31 µg/mL)
MIC [28]: 2.44 µM (≈ 4 µg/mL)
MIC [29]: ≥ 76.1 µM
MIC [12]: 1.22 µM (≈ 2 µg/mL)

SMILES: CC[C@H](C)[C@H](N)C(=O)N[C@@H](CC(N)=O)C(=O)N[C@@H](Cc1c[nH]c2ccccc12)C(=O)N[C@@H](CCCCN)C(=O)N[C@@H](CCCCN)C(=O)N[C@H](C(=O)N[C@@H](CCCCN)C(=O)N[C@@H](CCCCN)C(=O)N[C@@H](CCCCN)C(=O)N[C@H](C(=O)N[C@@H](C)C(=O)NCC(=O)N[C@@H](CCSC)C(=O)N[C@@H](CC(C)C)C(N)=O)C(C)C)[C@@H](C)CC [INWKKIKKKVAGML]
MIC [13]: 9.66 µM (≈ 16 µg/mL)
MIC [15]: 2.41 µM (≈ 4 µg/mL)
MIC [16]: 1.21 µM (≈ 2 µg/mL)
MIC [17]: 18.7 µM (≈ 31 µg/mL)
MIC [18]: 2.41 µM (≈ 4 µg/mL)
MIC [20]: 2.41 µM (≈ 4 µg/mL)
MIC [21]: 2.41 µM (≈ 4 µg/mL)
MIC [6]: 0.604 µM (≈ 0.999 µg/mL)
MIC [22]: 1.21 µM (≈ 2 µg/mL)
MIC [23]: 18.7 µM (≈ 31 µg/mL)
MIC [24]: 18.7 µM (≈ 31 µg/mL)
MIC [8]: 2.41 µM (≈ 4 µg/mL)
MIC [25]: 0.604 µM (≈ 0.999 µg/mL)
MIC [26]: 2.41 µM (≈ 4 µg/mL)
MIC [27]: 18.7 µM (≈ 31 µg/mL)
MIC [28]: 0.604 µM (≈ 0.999 µg/mL)
MIC [29]: 4.83 µM (≈ 8 µg/mL)
MIC [12]: 1.21 µM (≈ 2 µg/mL)

Continued, values first:

MIC (Escherichia coli C600): 1.5 µM (≈ 5.18 µg/mL)
MIC [1]: 6 µM (≈ 20.7 µg/mL)
MIC [2]: 0.7 µM (≈ 2.42 µg/mL)
SMILES: CC(C)C[C@H](NC(=O)[C@H](CCCN=C(N)N)NC(=O)[C@H](CCCCN)NC(=O)[C@H](CCCCN)NC(=O)[C@H](CC(C)C)NC(=O)[C@H](CC(N)=O)NC(=O)[C@H](C)NC(=O)[C@H](Cc1ccccc1)NC(=O)[C@H](CCCN=C(N)N)NC(=O)[C@H](CCCN=C(N)N)NC(=O)[C@H](CCCCN)NC(=O)[C@H](Cc1ccccc1)NC(=O)[C@H](CO)NC(=O)[C@H](C)NC(=O)CNC(=O)[C@H](Cc1ccccc1)NC(=O)[C@H](CCCCN)NC(=O)[C@H](CCCCN)NC(=O)[C@H](Cc1ccccc1)NC(=O)[C@H](Cc1ccc(O)cc1)NC(=O)[C@H](CCC(=O)O)NC(=O)[C@H](CCCCN)NC(=O)[C@H](CCCN=C(N)N)NC(=O)[C@H](CCCCN)NC(=O)CNC(=O)[C@H](Cc1ccccc1)NC(=O)[C@H](Cc1ccccc1)NC(=O)CN)C(N)=O [GFFGKRKEYFKKFGASFKRRFANLKKRL]

MIC [14]: ≥ 200 µM
SMILES: CC(C)C[C@H](NC(=O)CN)C(=O)N[C@@H](CC(C)C)C(=O)N[C@@H](C)C(=O)N[C@@H](CO)C(=O)N[C@@H](CC(C)C)C(=O)NCC(=O)N[C@@H](CCCCN)C(=O)N[C@H](C(=O)N[C@@H](Cc1ccccc1)C(=O)NCC(=O)NCC(=O)N[C@@H](Cc1ccc(O)cc1)C(=O)N[C@@H](CC(C)C)C(=O)N[C@@H](C)C(=O)N[C@@H](CCC(=O)O)C(=O)N[C@@H](CCCCN)C(=O)N[C@@H](CC(C)C)C(=O)N[C@@H](CCCCN)C(=O)N1CCC[C@H]1C(=O)N[C@@H](CCCCN)C(=O)O)C(C)C [GLLASLGKVFGGYLAEKLKPK]

MIC (Escherichia coli C600): 6 µM (≈ 17.5 µg/mL)
MIC [1]: ≥ 36 µM
MIC [2]: 1.5 µM (≈ 4.38 µg/mL)
SMILES: CC[C@H](C)[C@H](NC(=O)[C@H](C)NC(=O)[C@H](CCCCN)NC(=O)[C@H](CCCN=C(N)N)NC(=O)CNC(=O)[C@H](Cc1ccccc1)NC(=O)[C@H](CCCCN)NC(=O)[C@H](CCCCN)NC(=O)[C@H](CCC(N)=O)NC(=O)[C@H](CC(C)C)NC(=O)[C@H](CCCCN)NC(=O)CNC(=O)[C@H](Cc1ccccc1)NC(=O)[C@H](CC(C)C)NC(=O)CN)C(=O)N[C@@H](CO)C(=O)N[C@@H](Cc1ccc(O)cc1)C(=O)N[C@@H](C)C(=O)N[C@H](C(=O)N[C@@H](CCCCN)C(=O)N[C@@H](CCCCN)C(=O)N[C@@H](C)C(=O)N[C@@H](CCCN=C(N)N)C(=O)NCC(=O)N[C@@H](CCCCN)C(=O)N[C@@H](Cc1cnc[nH]1)C(=O)O)C(C)C [GLFGKLQKKFGRKAISYAVKKARGKH]

MIC [14]: ≥ 100 µM
SMILES: CC[C@H](C)[C@H](NC(=O)[C@H](CC(C)C)NC(=O)[C@@H]1CCCN1C(=O)[C@H](CC(C)C)NC(=O)[C@H](CCCCN)NC(=O)[C@H](CCCCN)NC(=O)[C@H](Cc1ccccc1)NC(=O)[C@H](CC(C)C)NC(=O)[C@H](CCCCN)NC(=O)[C@H](Cc1c[nH]c2ccccc12)NC(=O)[C@@H](N)CCCCN)C(=O)NCC(=O)N[C@@H](CCCN=C(N)N)C(=O)N[C@H](C(=O)N[C@@H](CC(C)C)C(N)=O)C(C)C [KWKLFKKLPLIGRVL]
